Measured values taken from US20100298141A1, “SUBSTITUTED PYRIDINE N-OXIDE HERBICIDES” (E. I. DU PONT DE NEMOURS AND COMPANY, priority 2007, published 2010).

Assays:
johnsongrass = experiment: Test C pre-/postemergence test; assay type: in vivo, Sorghum halepense
In short: (§1)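 Seeds were planted and treated preemergence with test chemical in a non-phytotoxic solvent mixture containing surfactant. Postemergence applications of the same formulation went onto plants 2 to 18 cm tall (1- to 4-leaf stage). A dash marks no test result.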

common ragweed = experiment: Test C pre-/postemergence test; assay type: in vivo, Ambrosia elation; conditions: for Plant response rating (0 to 100), Ragweed / Plant response rating, Ragweed: Postemergence; for Plant response rating, Ragweed: scale 0 to 100, 0 no effect, 100 complete control
In short: as §1

crabgrass = experiment: Test C pre-/postemergence test; assay type: in vivo, Digitaria sanguinalis
In short: as §1

giant foxtail = experiment: Test C pre-/postemergence test; assay type: in vivo, Setaria faberii
In short: as §1

downy brome = experiment: Test C pre-/postemergence test; assay type: in vivo, Bromus tectorum
In short: as §1

kochia = experiment: Test C pre-/postemergence test; assay type: in vivo, Kochia scoparia
In short: as §1

redroot pigweed = experiment: Test A pre-/postemergence greenhouse test; assay type: in vivo, Amaranthus retroflexus; conditions: for Plant response rating, Pigweed: 0 to 100 scale where 0 is no effect and 100 is complete control; for Pigweed plant response rating: 0 to 100 scale
In short: (§2)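 Untreated controls served as the reference for visual injury ratings taken about ten days after spraying. The non-phytotoxic solvent/surfactant formulation was applied preemergence to seeded loam and sand and postemergence to plants two to ten cm high.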

green foxtail = experiment: Test C pre-/postemergence test; assay type: in vivo, Setaria viridis
In short: as §1

Surinam grass = experiment: Test C pre-/postemergence test; assay type: in vivo, Brachiaria decumbens
In short: as §1

rice = experiment: Test C flooded paddy test; assay type: in vivo, Oryza sativa; conditions: Flood
In short: (§3)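 Under a constant 3 cm flood, test compounds went directly into the paddy water. Following 13 to 15 days of greenhouse growth, treated species and controls were compared by eye.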

duck salad = experiment: Test C flooded paddy test; assay type: in vivo, Heteranthera limosa; conditions: Flood
In short: as §3

cocklebur = experiment: Test C pre-/postemergence test; assay type: in vivo, Xanthium strumarium; conditions: for Plant response rating, Cocklebur: scale 0 to 100, 0 no effect, 100 complete control
In short: as §1

lambsquarters = experiment: Test C pre-/postemergence test; assay type: in vivo, Chenopodium album; conditions: Postemergence; for Plant response rating, Lambsquarters: scale 0 to 100, 0 no effect, 100 complete control
Source text: Seeds of plant species selected from blackgrass (Alopecurus myosuroides), downy brome (Bromus tectorum), green foxtail (Setaria viridis), Italian ryegrass (Lolium multiflorum), wheat (Triticum aestivum), wild oat (Avena fatua), catchweed bedstraw (Galium aparine), Russian thistle (Salsola kali), […] (Cynodon dactylon), Surinam grass (Brachiaria decumbens), cocklebur (Xanthium strumarium), corn (Zea mays), crabgrass (Digitaria sanguinalis), woolly cupgrass (Eriochloa villosa), giant foxtail (Setaria faberii), Goosegrass (Eleusin indica), johnsongrass (Sorghum halepense), kochia (Kochia scoparia), lambsquarters (Chenopodium album), morningglory (Ipomoea coccinea), eastern black nightshade (Solanum ptycanthum), yellow nutsedge (Cyperus esculentus), pigweed (Amaranthus retroflexus), common ragweed (Ambrosia elation), soybean (Glycine max), common (oilseed) sunflower (Helianthus annuus), and velvetleaf (Abutilon theophrasti) were planted and treated preemergence with test chemicals formulated in a non-phytotoxic solvent mixture which included a surfactant. At the same time, plants selected from these crop and weed species and also winter barley (Hordeum vulgare), canarygrass (Phalaris minor), and chickweed (Stellaria media) were treated with postemergence applications of some of the test chemicals formulated in the same manner. Plants ranged in height from 2 to 18 cm (1- to 4-leaf stage) for postemergence treatments. […] At time of treatment, test pots were flooded to 3 cm above the soil surface, treated by application of test compounds directly to the paddy water, and then maintained at that water depth for the duration of the test. […] A dash (-) response means no test result.

wild oat = experiment: Test C pre-/postemergence test; assay type: in vivo, Avena fatua
In short: as §1

velvetleaf [1] = experiment: Test A pre-/postemergence greenhouse test; assay type: in vivo, Abutilon theophrasti; conditions: for Plant response rating, Velvetleaf: 0 to 100 scale where 0 is no effect and 100 is complete control; for Velvetleaf plant response rating: 0 to 100 scale
In short: as §2

barnyardgrass = experiment: Test A pre-/postemergence greenhouse test; assay type: in vivo, Echinochloa crus-galli; conditions: for Plant response rating, Barnyardgrass: 0 to 100 scale where 0 is no effect and 100 is complete control; for Barnyardgrass plant response rating: 0 to 100 scale
In short: as §2

velvetleaf [2] = experiment: Test C pre-/postemergence test; assay type: in vivo, Abutilon theophrasti
In short: as §1

[3] = 62 g ai/ha, Preemergence, scale 0 to 100
[4] = 125 g ai/ha, preemergence, scale 0 (no effect) to 100 (complete control)
[5] = Postemergence, 62 g ai/ha, scale 0 to 100, 0 no effect, 100 complete control
[6] = Postemergence, 125 g ai/ha, scale 0 to 100, 0 no effect, 100 complete control
[7] = Postemergence, 250 g ai/ha, scale 0 to 100, 0 no effect, 100 complete control
[8] = Preemergence, 31 g ai/ha, scale 0 to 100 (0 no effect, 100 complete control)
[9] = preemergence, 250 g ai/ha, scale 0 (no effect) to 100 (complete control)
[10] = Postemergence, 500 g ai/ha, 0 is no effect, 100 is complete control
[11] = Preemergence, 125 g ai/ha, 0 no effect, 100 complete control
[12] = 62 g ai/ha, scale 0 to 100 (0 no effect, 100 complete control)
[13] = 250 g ai/ha, scale 0 to 100, 0 no effect, 100 complete control, 13 to 15 days

CCn1nc(C(F)(F)F)c(CS(=O)(=O)c2cc(C)cc[n+]2[O-])c1OCC(F)(F)F [Compound 64]
Johnsongrass plant response rating (johnsongrass; [3]): 98
Johnsongrass plant response rating (johnsongrass; [4]): 100
Plant response rating (0 to 100), Johnsongrass (johnsongrass; Postemergence, 31 g ai/ha): 0
Plant response rating, Johnsongrass (johnsongrass; [5]): 0
Plant response rating, Johnsongrass (johnsongrass; [6]): 0
Plant response rating, Johnsongrass (johnsongrass; [7]): 0
Plant response rating, Johnsongrass (johnsongrass; [8]): 55
Johnsongrass plant response rating (johnsongrass; [9]): 100
Ragweed plant response rating (common ragweed; [3]): 85
Ragweed plant response rating (common ragweed; [4]): 100
Plant response rating (0 to 100), Ragweed (common ragweed; 31 g ai/ha): 0
Plant response rating (0 to 100), Ragweed (common ragweed; 62 g ai/ha): 0
Plant response rating, Ragweed (common ragweed; 125 g ai/ha): 0
Plant response rating, Ragweed (common ragweed; 250 g ai/ha): 0
Ragweed plant response rating (common ragweed; [9]): 100
Crabgrass, Large plant response rating (crabgrass; [3]): 100
Crabgrass, Large plant response rating (crabgrass; [4]): 100
Plant response rating (0 to 100), Crabgrass, Large (crabgrass; Postemergence, 31 g ai/ha): 0
Plant response rating, Crabgrass, Large (crabgrass; [5]): 0
Plant response rating, Crabgrass, Large (crabgrass; [6]): 0
Plant response rating, Crabgrass, Large (crabgrass; [7]): 20
Plant response rating, Crabgrass, Large (crabgrass; [8]): 98
Crabgrass, Large plant response rating (crabgrass; [9]): 100
Foxtail, Giant plant response rating (giant foxtail; [3]): 100
Foxtail, Giant plant response rating (giant foxtail; [4]): 100
Plant response rating (0 to 100), Foxtail, Giant (giant foxtail; Postemergence, 31 g ai/ha): 0
Plant response rating, Foxtail, Giant (giant foxtail; [5]): 0
Plant response rating, Foxtail, Giant (giant foxtail; [6]): 0
Plant response rating, Foxtail, Giant (giant foxtail; [7]): 45
Plant response rating, Foxtail, Giant (giant foxtail; [8]): 85
Foxtail, Giant plant response rating (giant foxtail; [9]): 100
Bromegrass, Downy plant response rating (downy brome; [3]): 30
Bromegrass, Downy plant response rating (downy brome; [4]): 85
Plant response rating (0 to 100), Bromegrass, Downy (downy brome; Postemergence, 31 g ai/ha): 0
Plant response rating, Bromegrass, Downy (downy brome; [5]): 0
Plant response rating, Bromegrass, Downy (downy brome; [6]): 10
Plant response rating, Bromegrass, Downy (downy brome; [7]): 20
Plant response rating, Bromegrass, Downy (downy brome; [8]): 30
Bromegrass, Downy plant response rating (downy brome; [9]): 100
Kochia plant response rating (kochia; [3]): 100
Kochia plant response rating (kochia; [4]): 100
Plant response rating (0 to 100), Kochia (kochia; Postemergence, 31 g ai/ha): 0
Plant response rating, Kochia (kochia; [5]): 0
Plant response rating, Kochia (kochia; [6]): 0
Plant response rating, Kochia (kochia; [7]): 0
Plant response rating, Kochia (kochia; [8]): 100
Kochia plant response rating (kochia; [9]): 100
Plant response rating, Pigweed (redroot pigweed; Postemergence, 125 g ai/ha): 70
Pigweed plant response rating (redroot pigweed; [10]): 80
Pigweed plant response rating (redroot pigweed; [11]): 50
Plant response rating, Pigweed (redroot pigweed; Preemergence, 500 g ai/ha): 100
Foxtail, Green plant response rating (green foxtail; [3]): 100
Foxtail, Green plant response rating (green foxtail; [4]): 100
Plant response rating (0 to 100), Foxtail, Green (green foxtail; Postemergence, 31 g ai/ha): 0
Plant response rating, Foxtail, Green (green foxtail; [5]): 0
Plant response rating, Foxtail, Green (green foxtail; [6]): 50
Plant response rating, Foxtail, Green (green foxtail; [7]): 80
Plant response rating, Foxtail, Green (green foxtail; [8]): 75
Foxtail, Green plant response rating (green foxtail; [9]): 100
Surinam Grass plant response rating (Surinam grass; [3]): 100
Surinam Grass plant response rating (Surinam grass; [4]): 100
Plant response rating (0 to 100), Surinam Grass (Surinam grass; Postemergence, 31 g ai/ha): 0
Plant response rating (0 to 100), Surinam Grass (Surinam grass; Postemergence, 62 g ai/ha): 0
Plant response rating, Surinam Grass (Surinam grass; [6]): 0
Plant response rating, Surinam Grass (Surinam grass; [7]): 40
Plant response rating, Surinam Grass (Surinam grass; [8]): 95
Surinam Grass plant response rating (Surinam grass; [9]): 100
Plant response rating, Rice (rice; [12]): 0
Plant response rating, Rice (rice; [13]): 60
Plant response rating, Ducksalad (duck salad; [12]): 20
Plant response rating, Ducksalad (duck salad; [13]): 75
Cocklebur plant response rating (cocklebur; [3]): 0
Cocklebur plant response rating (cocklebur; [4]): 0
Plant response rating (0 to 100), Cocklebur (cocklebur; Postemergence, 31 g ai/ha): 0
Plant response rating, Cocklebur (cocklebur; Postemergence, 62 g ai/ha): 0
Plant response rating, Cocklebur (cocklebur; Postemergence, 125 g ai/ha): 0
Plant response rating, Cocklebur (cocklebur; Postemergence, 250 g ai/ha): 0
Plant response rating (0 to 100), Lambsquarters (lambsquarters; 31 g ai/ha): 0
Plant response rating, Lambsquarters (lambsquarters; 62 g ai/ha): 0
Plant response rating, Lambsquarters (lambsquarters; 125 g ai/ha): 0
Plant response rating, Lambsquarters (lambsquarters; 250 g ai/ha): 0
Oat, Wild plant response rating (wild oat; [3]): 80
Oat, Wild plant response rating (wild oat; [4]): 90
Plant response rating (0 to 100), Oat, Wild (wild oat; Postemergence, 31 g ai/ha): 0
Plant response rating, Oat, Wild (wild oat; [5]): 30
Plant response rating, Oat, Wild (wild oat; [6]): 50
Plant response rating, Oat, Wild (wild oat; [7]): 85
Plant response rating, Oat, Wild (wild oat; [8]): 50
Oat, Wild plant response rating (wild oat; [9]): 98
Plant response rating, Velvetleaf (velvetleaf [1]; Postemergence, 125 g ai/ha): 60
Velvetleaf plant response rating (velvetleaf [1]; [10]): 70
Velvetleaf plant response rating (velvetleaf [1]; [11]): 50
Plant response rating, Velvetleaf (velvetleaf [1]; Preemergence, 500 g ai/ha): 100
Plant response rating, Barnyardgrass (barnyardgrass; Postemergence, 125 g ai/ha): 90
Barnyardgrass plant response rating (barnyardgrass; [10]): 90
Barnyardgrass plant response rating (barnyardgrass; [11]): 70
Plant response rating, Barnyardgrass (barnyardgrass; Preemergence, 500 g ai/ha): 100
Velvetleaf plant response rating (velvetleaf [2]; [3]): 100
Velvetleaf plant response rating (velvetleaf [2]; [4]): 100
Plant response rating (0 to 100), Velvetleaf (velvetleaf [2]; Postemergence, 31 g ai/ha): 0
Plant response rating (0 to 100), Velvetleaf (velvetleaf [2]; Postemergence, 62 g ai/ha): 0
Plant response rating, Velvetleaf (velvetleaf [2]; [6]): 0
Plant response rating, Velvetleaf (velvetleaf [2]; [7]): 40
Plant response rating, Velvetleaf (velvetleaf [2]; [8]): 45
Velvetleaf plant response rating (velvetleaf [2]; [9]): 100
